Laboratory results reported in US10975114B2, “Bis 2′-5′-RR-(3′F-A)(3′F-A) cyclic dinucleotide compound and uses thereof” (ADURO BIOTECH, INC., priority 2017, dated 2021).

Columns and labels:
wild type hSTING = target: T1, wild type hSTING (Homo sapiens, UniProt Q86WV6, H232R); assay: DSF Tm shift, purified hSTING WT (AA140-379); assay type: binding; conditions: 1 mg/ml STING AA140-379, ligand 1 mM
T1 construct: 6xHis-SUMO (with TEV site) (N, cleaved yes); made in house; host or cells: Rosetta2 (DE3) E. coli
Method: (§1) Cells were grown in lysogeny broth at 37° C. until a […] absorbance of 0.6 was reached. […] Cells were lysed using an S-450D sonifier (Emmerson industrial) on ice. […] Protein was aliquoted, flash frozen in liquid nitrogen and stored at −80° C. until use.
(§2) The protein is heated in the presence of a dye that binds to and fluoresces in hydrophobic environments. The protein is thermally denatured by heating resulting in increased dye binding to the unfolded protein and fluorescence. The temperature midpoint (Tm) of a proteins denaturation is established by calculating the half maximal value of the denaturation curve. The temperature midpoint of the protein in the presence of a ligand is directly related to the affinity of the ligand for the protein and therefore its ability to stabilize the protein at higher temperatures.

HAQ allele hSTING = target: T2, HAQ allele hSTING (Homo sapiens, UniProt Q86WV6, G230A/H232R/R293Q); assay: DSF Tm shift, purified hSTING HAQ allele (AA140-379); assay type: binding; conditions: 1 mg/ml STING AA140-379, ligand 1 mM
T2 construct: 6xHis-SUMO (with TEV site) (N, cleaved yes); made in house; host or cells: Rosetta2 (DE3) E. coli
Method: as §1, §2

REF allele hSTING = target: T3, REF allele hSTING (Homo sapiens, UniProt Q86WV6); assay: DSF Tm shift, purified hSTING REF allele (AA140-379); assay type: binding; conditions: 1 mg/ml STING AA140-379, ligand 1 mM
T3 construct: 6xHis-SUMO (with TEV site) (N, cleaved yes); made in house; host or cells: Rosetta2 (DE3) E. coli
Method: as §1, §2

hSTING WT = target: T4, hSTING WT (Homo sapiens, UniProt Q86WV6, H232R); assay: ITC binding assay, hSTING WT; conditions: 25° C., protein 0.1 mM, ligand 0.35 mM
T4 construct: made in house; host or cells: BL21 Rosetta 2 (DE3) E. coli
Method: (§3) The WT and REF proteins were similarly prepared for use in an ITC binding assay. Expression plasmids were transformed into BL21 Rosetta 2 (DE3) (EMD Millipore) E. coli cells for protein expression. 50 ml starter cultures were grown overnight in 2×YT supplemented with 50 μg/ml kanamycin and 30 μg/ml chloramphenicol. Multi-liter large scale cultures of the same growth media as the starter were inoculated at a ratio of 1:1,000 (V/V) and allowed to grow at 37° C. to an optical density of 0.6, cultures were then shifted to 18° C. Protein expression was induced by the addition of isopropyl β-D-1-thiogalactopyranoside to a final concentration of 0.3 mM. Protein expression was allowed to proceed for 18-24 hrs. Pelleted cells were resuspended in 50 mM Tris pH 7.5, 500 mM NaCl, 10% glycerol, 20 mM imidazole, 1 mM TCEP and complete protease inhibitor cocktail (Sigma). Cells were lysed by sonication (Branson) and insoluble material was removed by centrifugation. Proteins were purified on Ni-NTA resin and concentrated to >10 mg/ml. 6×H-SUMO-STING LBD was further purified by gel filtration chromatography using a High Load 26/600 Superdex 75 column (GE Healthcare) in a buffer of 20 mM Tris pH 7.5, 150 mM NaCl, 5% glycerol and 1 mM TCEP. Peak fractions were concentrated to between 10-15 mg/ml via ultrafiltration aliquoted and flash frozen in liquid nitrogen and stored at […]
The resulting amino acid sequence for the STING WT allele is as follows: • Allele Name: WT • Amino Acid Sequence:
(§4) Proteins were dialyzed overnight in 20 mM HEPES pH 7.5, 150 mM NaCl. Insoluble material was removed by centrifugation at 31,000×g. The invention compound 2′2′-RR-(3′F-A)(3′F-A) and comparison STING agonists 3′3′-RR-(2′F-A)(2′F-A); 2′3′-RR-(3′F-A)(2′F-A) were resuspended in dialysis buffer. The concentration of both the protein and ligands were checked by spectroscopy and adjusted if necessary.
(§5) STING protein was added to the ITC sample cell at a final concentration of 0.1 mM. The CDN ligand was at a final concentration of 0.35 mM in the syringe. […]

hSTING REF allele = target: T5, hSTING REF allele (Homo sapiens, UniProt Q86WV6); assay: ITC binding assay, hSTING REF allele; conditions: 25° C., protein 0.1 mM, ligand 0.35 mM
T5 construct: made in house; host or cells: BL21 Rosetta 2 (DE3) E. coli
Method: as §3
The resulting amino acid sequences for the STING REF allele is as follows: • Allele Name: REF • Amino Acid Sequence:
as §4, §5

[1] = tested on: THP1 cells (hSTING HAQ allele); assay: THP1-Dual IRF-3 luciferase reporter assay without digitonin; assay type: cell-based, human; conditions: 30 min compound incubation, overnight readout of secreted luciferase
Method: Cells were washed with fresh media and incubated for 30 min at 37° C. with 5% CO2 with compounds in 3-fold titration steps from 2,000 to 0.0338 μM in PB buffer (50 mM 4-(2-hydroxyethyl)-1-piperazineethanesulfonic acid, 100 mM KCl, 3 mM MgCl2, 0.1 mM dithiothreitol, 85 mM sucrose, 1 mM ATP, 0.1 mM GTP and 0.2% bovine serum albumin). After 30 minutes, cells were washed and fresh RPMI media containing 10% FBS was added, and cells were incubated at 37° C. with 5% CO2. Cell culture supernatants from each sample were collected after overnight incubation, and 10 μl of the cell culture supernatants was added to 50 μl QUANTI-Luc reagent (Invivogen). Type I interferon activation was determined by measuring secreted luciferase levels on a SpectraMax M3 spectrophotometer (Molecular Devices). The EC50 value for the same compounds as tested in Example 4 was determined from the dose-response curve for the 10 concentrations from the serial dilution of the compounds in this assay.

4T1 mammary carcinoma [2] = assay: 4T1 mammary carcinoma dual-flank model, single intratumoral injection; assay type: in vivo, BALB/c mice
Method: (§6) To assess the ability of 2′2′-RR-(3′F-A)(3′F-A) to promote anti-tumor immunity in a murine tumor model, 6-8 week old female BALB/c mice (n=8/group) were implanted in both the left and the right flanks with 4T1 mammary carcinoma cells (2×10^5 cells in 100 μL PBS). Mice were treated with 2′2′-RR-(3′F-A)(3′F-A) at 0.1, 1, 10 and 100 μg in a total volume of 40 μL HBSS and compared to Hank's Balanced Salt Solution (HBSS) vehicle control. Compound was administered when tumors reached a volume of approximately 40-50 mm^3 on day 8 post tumor implantation (indicated by dotted line on the x-axis in tumor growth graphs). The compound was administered by a single […] injection into the center of the tumor (intratumoral, IT) using a 27 gauge needle. Tumors were measured twice weekly.

4T1 mammary carcinoma [3] = assay: Tumor-specific T cells in blood of 4T1 mice (AH1 tetramer flow cytometry); assay type: in vivo, BALB/c mice; conditions: day 7 post IT injection, 0.1, 1 and 10 μg IT doses, compared to HBSS
Method: as §6
Lympholyte (Cedarlane) gradient-purified PBMCs (˜1×10^6) were pre-incubated with anti-CD16/32 monoclonal antibody to block potential non-specific binding and labeled with murine T-Select H-2L^d MuLV gp70 Tetramer-[…]-PE (SEQ ID NO: 20, AH1 peptide with PE fluorescent label, MBL), anti-CD4-BUV737 (RMA4-5), anti-CD8α-BUV395 (53-6.7) (BD Biosciences); anti-CD90.2 BV510 (30-H12) (BioLegend) and the Fixable LIVE/DEAD Near-IR viability dye (ThermoFisher). Data were acquired using a LSRFortessa X-20 cytometer with FACSDiva software (BD) and analyzed with FlowJo software (Tree Star).

4T1 mammary carcinoma [4] = assay: 4T1 mammary carcinoma dual-flank model, combination with anti-PD-1 antibody; assay type: in vivo, BALB/c mice
Method: (§7) To assess the ability of 2′2′-RR-(3′F-A)(3′F-A) to promote anti-tumor immunity in murine tumor models in combination with an antagonistic anti-PD-1 antibody, 6-8 week old female BALB/c mice (n=8/group) were implanted in both the left and the right flanks with 4T1 mammary carcinoma cells (2×10^5 cells in 100 aL PBS, day 0). Mice were treated with vehicle alone or 1 μg 2′2′-RR-(3′F-A)(3′F-A) in a total volume of 40 aL HBSS by IT injection using a 27 gauge needle when tumors reached a volume of approximately 40-50 mm^3 on day 8 post tumor implantation (indicated by dotted line on the x-axis in tumor growth graphs). Mice were given intraperitoneal (IP) injections of 200 μg control IgG or anti-PD-1 (clone RMP1-14, BioXCell) beginning on the day of 2′2′-RR-(3′F-A)(3′F-A) treatment and then continuing twice per week throughout the duration of the experiment. Some mice were given IP injection of 100 μg anti-CD8 (clone 2.43, BioXCell) on study days 6, 8, 10, 14, and 17 to deplete CD8^+ T cells. Tumors were measured twice weekly.

4T1 mammary carcinoma [5] = assay: AH1-specific T cells in distal 4T1 tumor (TILs), with or without anti-PD-1; assay type: in vivo, BALB/c mice
Method: as §7, with “Some mice were given IP injection of 100 μg anti-CD8 (clone 2.43, BioXCell) on study days 6, 8, 10, 14, and 17 to deplete CD8^+ T cells.” left out
To directly quantify the effect of combining 2′2′-RR-(3′F-A)(3′F-A) with anti-PD-1 on tumor-specific T cells, a cohort of mice from Example 9 were euthanized on day 7 post IT injection and non-injected tumors dissociated into a single cell suspension. […] Data were acquired using a LSRFortessa X-20 cytometer with FACSDiva software (BD) and analyzed with FlowJo software (Tree Star).

[6] = 1 μg IT combined with anti-PD-1 antibody 200 μg IP twice per week

Row | SMILES | hSTING Tm Shift WT (wild type hSTING) [°C] | hSTING Tm Shift HAQ (HAQ allele hSTING) [°C] | hSTING Tm Shift REF (REF allele hSTING) [°C] | Kd (hSTING WT) [nM] | Kd (hSTING REF allele) [nM] | EC50 [1] [µM] | EC50 ([1]; Homo sapiens, THP-1, 0.5 h) [µM] | cures of the distal tumor (4T1 mammary carcinoma [2]; 10 μg single IT dose, n=8) [%] | cures of the primary tumor (4T1 mammary carcinoma [2]; 10 μg single IT dose, n=8) [%] | tumor inhibition in primary (injected) and distal (non-injected) flank tumor (4T1 mammary carcinoma [2]; single IT injection 0.1, 1, 10, 100 μg, compared to HBSS) | frequency of tumor-specific systemic T cells (4T1 mammary carcinoma [3]) | cures, injected tumor (4T1 mammary carcinoma [4]; 1 μg IT + control IgG) [%] | cures, non-injected tumor (4T1 mammary carcinoma [4]; 1 μg IT + control IgG) [%] | cures, distal (non-injected) tumor (4T1 mammary carcinoma [4]; [6]) [%] | cures, primary (injected) tumor (4T1 mammary carcinoma [4]; [6]) [%] | tumor-specific T cell response in distal tumor (4T1 mammary carcinoma [5]; 1 μg IT alone, TILs day 7 post IT injection) | polyfunctional IFNγ+TNFα+ CD8 T cells specific for the AH1 peptide in the tumor microenvironment (4T1 mammary carcinoma [5]; 1 μg IT combined with anti-PD-1, TILs of non-injected tumor, day 7 post IT injection)
1 | Nc1ncnc2c1ncn2[C@@H]1O[C@@H]2CO[P@@](=O)(S)O[C@@H]3[C@H](F)[C@@H](CO[P@@](=O)(S)O[C@@H]1[C@@H]2F)O[C@H]3n1cnc2c(N)ncnc21 [2′2′-RR-(3′F-A)(3′F-A), (1S,3R,6R,8R,9S,11R,14R,16R,17R,18R)-8,16-bis(6-amino-9H-purin-9-yl)-17,18-difluoro-3,11-dimercapto-2,4,7,10,12,15-hexaoxa-3,11-diphosphatricyclo[12.2.1.1^6,9]octadecane 3,11-dioxide] | 13.9 | 19.7 | 12.5 | 98 | 170 | 16.6 | < 20 | 37.5 | 100 | potent dose-dependent tumor inhibition | significantly higher frequency | 25 | 0 | 62.5 | 87.5 | measurable above background | statistically significant increase
2 | Nc1ncnc2c1ncn2[C@@H]1O[C@@H]2CO[P@@](=O)(S)O[C@@H]3[C@H](O)[C@@H](CO[P@@](=O)(S)O[C@@H]1[C@@H]2O)O[C@H]3n1cnc2c(N)ncnc21 [2′2′-RR-(A)(A), (1R,3R,6R,8R,9R,11R,14R,16R,17R,18R)-8,16-bis(6-amino-9H-purin-9-yl)-17,18-dihydroxy-3,11-dimercapto-2,4,7,10,12,15-hexaoxa-3,11-diphosphatricyclo[12.2.1.1^6,9]octadecane 3,11-dioxide] | 3.4 | 5.1 | 3.6 | – | – | – | > 150 | – | – | – | – | – | – | – | – | – | –
3 | Nc1nc2c(ncn2[C@@H]2O[C@@H]3COP(=O)(O)O[C@H]4[C@@H](O)[C@H](n5cnc6c(N)ncnc65)O[C@@H]4COP(=O)(O)O[C@@H]2[C@@H]3O)c(=O)[nH]1 [2′3′-(G)(A)] | – | – | – | – | – | > 150 | – | – | – | – | – | – | – | – | – | – | –
4 | Nc1ncnc2c1ncn2[C@@H]1O[C@@H]2CO[P@@](=O)(S)O[C@@H]3[C@H](F)[C@@H](OC[P@@](=O)(S)O[C@H]2[C@H]1F)O[C@H]3n1cnc2c(N)ncnc21 [2′3′-RR-(3′F-A)(2′F-A), dithio-[Rp,Rp]-cyclic-[3′F-A(2′,5′)p-2′F-A(3′,5′)p]] | 14.5 | 26 | 10.5 | 109 | 333 | – | 4.5 | – | – | – | – | – | – | – | – | – | –
5 | Nc1ncnc2c1ncn2[C@@H]1O[C@@H]2CO[P@@](=O)(S)O[C@H]3[C@@H](F)[C@H](n4cnc5c(N)ncnc54)O[C@@H]3CO[P@@](=O)(S)O[C@H]2[C@H]1F [3′3′-RR-(2′F-A)(2′F-A), (2R,3R,3aR,5R,7aR,9R,10R,10aR,12R,14aR)-2,9-bis(6-amino-9H-purin-9-yl)-3,10-difluoro-5,12-dimercaptooctahydro-2H,7H-difuro[3,2-d:3′,2′-j][1,3,7,9]tetraoxa[2,8]diphosphacyclododecine 5,12-dioxide] | – | – | – | 74 | 591 | – | 15.6 | – | – | – | – | – | – | – | – | – | –
